Structures can show the parent of a compound that is named as a salt. Peptide text beside a SMILES is read from it. * marks the point of attachment. Cbz = O=C(OCc1ccccc1)*
Assays:
luciferase secretion = assay: C.Luc. Secretion Assay (luciferase secretion, secretory deficits); assay type: cell-based
Protocol: We tested each shRNA for its ability to rescue a previously described defect in luciferase secretion. Chen, P. et al. (2010) Hum. Mol. Genet. 19, 3502-15; Cao, S. et al. (2010) Dis. Model. Mech. 3, 386-96; Barrows, N. J., et al., (2010)J. Biomol. Screen. 15, 735-47.) DYT1 patient data were obtained from 4 independent patient-derived lines and WT data (black bar) from 3 normal healthy control lines. Each line was tested in 5 independent experiments that included 4 technical replicates each (with the exception of SCD data from 3 independent experiments).
(Cao, S. et al. (2010) Dis. Model. Mech. 3, 386-96.) Subsequent testing of additional HIV protease inhibitors supported the activity of this class of compounds and generated favorable structure-activity relationship (SAR) data from which to design improved compounds (Tables 5 and 6). The results with a subset of compounds were also observed in a Luciferase secretion assay (Tables 5 and 6).

[1] = test system: delta-E Torsin1a localization in Flp-In T-REx 293 cells expressing EGFP-delta-E Torsin1a; assay: delta-E Torsin1a mis-localization assay (high-content imaging, % cells with EGFP puncta); assay type: cell-based, human; conditions: for EC50 / Emax: Table 5; for EC50: read-out: ΔE TorsinA Mislocalization Assay Localization EC50; for Emax: read-out: ΔE TorsinA Mislocalization Assay Localization Max Efficacy; for effect on delta-E Torsin1a localization (in words) / percentage of cells with punctate EGFP-Torsin1a signal: delta-E cell line; for effect on delta-E Torsin1a localization (in words): dose response; for percentage of cells with punctate EGFP-Torsin1a signal: MG132 10 μM, PBA 20 mM
Protocol: (§1) To limit variation in expression levels associated with random integration or transient expression, single copies of either WT or delta-E human TOR1A cDNAs with N-terminal EGFP fusions were inserted at the FRT site in Flp-In™ T-Rex™ 293 cells (Thermo Fisher Scientific #R780-07) via flippase recombinase-mediated cassette exchange according to the manufacturer's recommended protocols.
The cells were maintained at 37° C./5% CO2. All experiments were performed on cells with fewer than 5 passages.
Torsin1a expression was also controlled by tetracycline induction to avoid selective pressure modifying the cellular phenotypes. […] The mutant phenotype was measured as the percentage of cells with one or more EGFP puncta using automated high-content imaging analysis (see infra).
The image analysis algorithm was developed using the Cellomics ArrayScan V CompartmentAnalysisV2 protocol. Hoechst's nuclear staining (Ch1: excitation 350 nm; emission 461 nm) was used for focusing and for cell identification by nuclear size, shape, and intensity. […] Detected cells were gated according to nuclear area, length-to-width ratio, and perimeter-to-area ratio. For the purpose of analysis, cell bodies were defined by a radius of 10 μm from the outer edge of the defined nucleus. Overlapping cells were automatically segmented according to the Cellomics ArrayScanV CompartmentAnalysisV2 object segmentation feature. EGFP fluorescence (Ch2: excitation 488 nm; emission 509 nm) was used for puncta detection. […] Torsin1a puncta were identified using the spot detection feature of the Compartmental AnalysisV2 protocol. The percentage of cells containing one or more puncta was used as the primary metric in this assay.
(§2) In order to test this model directly, the delta-E Torsin1a cell line was treated with compounds targeting the eIF2-alpha signaling pathway (FIG. 2). […] The following day, serial drug dilutions were prepared at 2× final concentration in assay media containing 10 μg/mL tetracycline and 30 μL of the drug/tetracycline mixture was added to the appropriate wells, while control wells received 30 μL of assay media alone or assay media+10 μg/mL tetracycline (final tetracycline concentration for all wells except negative controls: 5 μg/mL). Cells were then incubated at 37° C./5% CO^2 for 48 hours and fixed, permeabilized, Hoechst stained, and imaged as described above. The range of the Torsin1a localization effect was normalized to the percentage of cells with puncta in vehicle-treated delta-E cell line as the maximum and that in WT cell line as the minimum (FIG. 2, panels c-h). Cell count and EGFP-Torsin1a expression were normalized to their respective values in the vehicle-treated delta-E cell line as the maximum. All dose response data are the average of 4 independent experiments per dose. Untreated control data used for normalization are the average of 24 independent experiments.

[2] = test system: Flp-In T-REx 293 cells expressing delta-E Torsin1a; assay: Cytotoxicity (cell count, cellular morphology) in the Torsin1a assay cell line; assay type: cell-based, human; conditions: for toxicity (cell count, cellular morphology; in words): at effective concentrations
Protocol: as §2
(§3) Efficacy is calculated as the magnitude of the pathology correction relative to the mutant Torsin1a pathology. For example an efficacy=−100% would be equivalent to the WT TorsinA phenotype, and 0% would be equivalent to the Mutant TorsinA phenotype. CCv2 refers to the dose response Curve Class annotation, and AC refers to Active Concentration.

[3] = as above; assay type: cell-based, human; conditions: human; for EC50 at 48 h: Flp-In T-REx 293 cells inducibly expressing delta-E Torsin1a, Table 5, read-out: ΔE TorsinA Mislocalization Assay Cytotoxicity EC50
Protocol: as §2, §3

[4] = test system: WT Torsin1a localization in Flp-In T-REx 293 cells expressing EGFP-WT Torsin1a; assay: Torsin1a localization assay in WT Torsin1a-expressing assay cell line; assay type: cell-based, human; conditions: WT cell line; MG132 10 μM, PBA 20 mM
From the text: To develop an assay capable of detecting conditions that correct a dystonia cellular phenotype, two human cell lines were generated that stably expressed EGFP-tagged human wild-type Torsin 1A, or delta-E Torsin1a, from a single cDNA copy integrated at a defined genomic site (FIG. 1, panel 1).
as §1, with “protocols. This system includes an inducible expression feature (TetON) that avoids selective pressure for potential toxic effects of chronic expression of mutant proteins (FIG. 1, panel 1). […]” for “protocols.”
This approach provides control over expression levels, avoiding the wide variation typically seen with random genomic integration or transient expression approaches. […] The mutant phenotype was measured as the percentage of cells with one or more EGFP puncta using automated high-content imaging analysis (see infra).
Development and validation of the high-content image analysis and assay performance under high-throughput screening conditions is presented in FIG. 9. […] Automated exposure times for each plate were determined by setting a target saturation of 25% in channel 1 in wells containing tetracycline-induced delta-E cells. Detected cells were gated according to nuclear area, length-to-width ratio, and perimeter-to-area ratio. […] EGFP fluorescence (Ch2: excitation 488 nm; emission 509 nm) was used for puncta detection. Automated exposure times for each plate were determined by setting a target saturation of 35% in channel 2 in wells containing induced delta-E cells. […]

Structure (SMILES) | C.Luc. Secretion Assay Secretion EC50 (luciferase secretion; Table 5) | EC50 ([1]; Homo sapiens, Flp-In-T-REx-293) | Emax ([1]; Homo sapiens, Flp-In-T-REx-293) | effect on delta-E Torsin1a localization (in words) [1] | toxicity (cell count, cellular morphology; in words) [2] | EC50 at 48 h [3] | percentage of cells with punctate EGFP-Torsin1a signal [4] | percentage of cells with punctate EGFP-Torsin1a signal [1] | also measured
Cc1c(O)cccc1C(=O)N[C@@H](CSc1ccccc1)[C@H](O)CN1C[C@H]2CCCC[C@H]2C[C@H]1C(=O)NC(C)(C)C [Nelfinavir, nelfinavir] | No Activity | 3.49 µM | 80% | corrected TorsinA localization in a dose-dependent fashion | no cellular toxicity observed at effective doses | 6.05 µM | – | – | –
CC(C)(C)NC(=O)[C@@H]1C[C@@H]2CCCC[C@@H]2CN1C[C@@H](O)[C@H](Cc1ccccc1)NC(=O)[C@H](CC(N)=O)NC(=O)c1ccc2ccccc2n1 [Saquinavir, saquinavir] | – | 9.41 µM | 88% | corrected TorsinA localization in a dose-dependent fashion | – | 23.6 µM | – | – | EC50 (luciferase secretion; Table 5): 8.09 µM; Emax (luciferase secretion; Table 5, read-out: C.Luc. Secretion Assay Secretion Max Efficacy): 34%; correction of secretory deficits (in words) (luciferase secretion; orthogonal assays): corrected secretory deficits
O=C(O)CCCc1ccccc1 [PBA, phenylbutyric acid] | – | – | – | – | – | – | ameliorated the burden of cells with punctate pathology | ameliorated the burden of cells with punctate pathology | –
CC(C)C[C@@H](C=O)NC(=O)[C@H](CC(C)C)NC(=O)[C@H](CC(C)C)NC(=O)OCc1ccccc1 [MG132] (Cbz-Leu-Leu-Leu-aldehyde) | – | – | – | – | – | – | significantly increased | significantly increased | –
CC(C)(C)NC(=O)[C@@H]1CN(Cc2cccnc2)CCN1C[C@@H](O)C[C@@H](Cc1ccccc1)C(=O)N[C@H]1c2ccccc2C[C@H]1O [Indinavir sulfate] | – | – | – | – | – | – | – | – | AC50 ([1]; Homo sapiens, Flp-In-T-REx-293, Table 6, AC = Active Concentration, read-out: % pathology AC50): 29.6 µM; % pathology Max Resp ([1]; Table 6, normalized scale, WT-TorsinA line 0%, DYT1 mutant line 100% pathology): −97.76%; % pathology Efficacy ([1]; Table 6, normalized scale, −100% = WT TorsinA phenotype, 0% = Mutant TorsinA phenotype): −114.60%; Cytotox CC-v2 (dose response Curve Class) ([2]; Table 6): −3; Cytotox Efficacy ([2]; Table 6): −80.64; Cytotox Max Resp ([2]; Table 6): −67.80; AC50 ([3]; Table 6, read-out: Cytotox AC50): 37.2 µM
CC(C)(C)NC(=O)[C@@H]1CN(Cc2cccnc2)CCN1C[C@@H](O)C[C@@H](Cc1ccccc1)C(=O)N[C@H]1c2ccccc2C[C@H]1O [Indinavir, indinavir] | No Activity | 26.5 µM | 114% | corrected TorsinA localization in a dose-dependent fashion | no cellular toxicity observed at effective doses | 35.2 µM | – | – | –

Source: patent US11285142B2, “Compositions and methods for identifying and treating dystonia disorders” (DUKE UNIVERSITY, priority 2015, dated 2022)
